One test has as its system AD animal models. Conditions: cited from earlier work.
The subject of the next test is cathepsin B. Conditions: cited from earlier work; for pIC50 Experimental: Table 4.
The next test has as its target T1, human cathepsin B (Homo sapiens, UniProt P07858).
T1 construct: purchased ab185438
Kind of test: Cathepsin B inhibitory assay, fluorometric kit (ab185438), AFC substrate. In kind it is biochemical. The note with it: 10 µM. On the procedure: Cathepsin B inhibitory assay was performed using a fluorometric-based assay kit as per company instructions (ab185438). The assay kit utilizes the ability of cathepsin B to cleave synthetic AFC (7-Amino-4-trifluoromethyl coumarin) substrate to freely release AFC; moreover, this AFC can be quantified by a fluorometer. In the presence of cathepsin B inhibitors, the cleavage of the substrate was reduced, and there was a decrease in the total loss of the AFC fluorescence. The experiments were performed in triplicate. The test compounds (virtual screened hits) were prepared in different concentrations of 2.5, 5.0, 10.0, 15.0, and 20.0 µM. […] Next, fluorescence was measured in a kinetic mode for 30–60 min at 37 °C (Ex/Em = 400/505). Two timepoints were used—0 and 15 min (ΔT = T2 − T1)—and corresponding values for the fluorescence (ΔRFU = RFU2-RFU1) were used to calculate the slope for all test inhibitor samples and EC, by dividing the net ΔRFU values by the time ΔT. The percentage of relative inhibition was calculated using the following formula: % Relative Inhibition=Slope of EC−Slope of Sample /Slope of EC×100

Where [1] appears, read: Figure 1, previously reported inhibitors of cathepsin B, read-out: IC50.
[2] abbreviates: class of the experimental IC50, read-out: Activity Scale Experimental.
Setting [3] is: Table S1, read-out: IC50: half maximal inhibitory concentration.

Read-outs that look alike come from different tables or passages of the source. Bounds are passed on as bounds.

As to `CCOC(=O)[C@H]1O[C@@H]1C(=O)N[C@@H](CC(C)C)C(=O)NCCC(C)C` [Compound N20, ethyl (2S,3S)-3-[[(2S)-4-methyl-1-(3-methylbutylamino)-1-oxopentan-2-yl]carbamoyl]oxirane-2-carboxylate], in the test on AD animal models, the “Aβ in the brain” value is listed as “reduces Aβ in the brain” and the memory deficits entry is on record as “improves memory deficits”. Also, the IC50 with cathepsin B (setting [1]) was 14 nM. Further, the “pIC50 Experimental” value with cathepsin B is 8.47. Besides, the IC50 in the test with cathepsin B (setting [2]) was below 300 nM.

Consider `CCn1nc(-c2cccs2)nc2c(=O)n(C)c(=O)nc1-2` [Compound S13, 1-Ethyl-6-methyl-3-thiophen-2-yl-1H-pyrimido[5,4-e][1,2,4]triazine-5,7-dione], for which the “pIC50 Experimental” value with cathepsin B is given as 7.14. Moreover, the IC50 in the test on cathepsin B (setting [2]) is below 300 nM.

As for `COc1ccc(S(=O)(=O)n2nc(OC(=O)c3ccco3)cc2N)cc1` [Compound S15], the “pIC50 Experimental” value in the test with cathepsin B is given as 6.03. Further, in the test on cathepsin B (setting [2]), the IC50 is 300 to 2500 nM.

`CC(=O)NC(=O)NC1OC(=O)C(Cl)=C1Cl` (centres unmarked) [Compound S16, N-[(3,4-dichloro-5-oxo-2H-furan-2-yl)carbamoyl]acetamide]: the “pIC50 Experimental” value in the test on cathepsin B is recorded as 5.67. For the same compound, the IC50 was 2120 nM in the test with cathepsin B (setting [3]) and 300 to 2500 nM with cathepsin B (setting [2]).

Regarding `COc1ccc(S(=O)(=O)n2nc(OC(=O)c3ccccc3)cc2N)cc1` [Compound S17, [5-amino-1-(4-methoxyphenyl)sulfonylpyrazol-3-yl] benzoate], the “pIC50 Experimental” value in the test on cathepsin B is 5.02. The IC50 in the test with cathepsin B (setting [2]) is above 2500 nM.

`CCOC(=O)C(C(=O)OCC)N(C#N)c1nc(SC)nc(N(C)C)n1` [Compound S19, diethyl 2-[cyano-[4-(dimethylamino)-6-methylsulfanyl-1,3,5-triazin-2-yl]amino]propanedioate]: in the test with cathepsin B, the “pIC50 Experimental” value was 4.71. For the same compound, in the test on cathepsin B (setting [2]), the IC50 was above 2500 nM.

As for `COc1ccccc1/N=C/c1nc(-c2ccccc2)oc1OC(C)=O` [Compound S20, [4-[(2-methoxyphenyl)iminomethyl]-2-phenyl-1,3-oxazol-5-yl] acetate], in the test on cathepsin B, the “pIC50 Experimental” value was 5.05. For the same compound, the IC50 in the test on cathepsin B (setting [2]) is above 2500 nM.

Regarding `CCC(=O)Oc1oc(-c2ccccc2)nc1/C=N/c1ccccc1OC` [Compound S21, [4-[(2-methoxyphenyl)iminomethyl]-2-phenyl-1,3-oxazol-5-yl] propanoate], in the test with cathepsin B, the “pIC50 Experimental” value is 4.39. For the same compound, the IC50 in the test with cathepsin B (setting [2]) is above 2500 nM.

Take `O=C(Oc1oc(-c2ccco2)nc1/C=N/c1ccccc1)c1ccco1` [Compound S22, [2-(furan-2-yl)-4-(phenyliminomethyl)-1,3-oxazol-5-yl] furan-2-carboxylate]: the “pIC50 Experimental” value with cathepsin B is given as 4.41. Further, in the test on cathepsin B (setting [2]), the IC50 was above 2500 nM.

In the case of `CCC(C)[C@@H](NC(=O)OC(C)(C)C)c1nnc(S(=O)(=O)Cc2cccc(C)c2)o1` (stereo partly drawn) [Compound S23, tert-butyl N-[(1R)-2-methyl-1-[5-[(3-methylphenyl)methylsulfonyl]-1,3,4-oxadiazol-2-yl]butyl]carbamate], the “pIC50 Experimental” value with cathepsin B is 5.68. Also, the IC50 in the test with cathepsin B (setting [2]) is 300 to 2500 nM.

Turning to `COc1nc(N(C#N)CC(N)=O)nc(N2CCCC2)n1` [Compound S24, 2-[cyano-(4-methoxy-6-pyrrolidin-1-yl-1,3,5-triazin-2-yl)amino]acetamide], the “pIC50 Experimental” value with cathepsin B is reported as 4.85. The IC50 with cathepsin B (setting [2]) was above 2500 nM.

Take `CC1=C(C)C[S+]([O-])N(S(=O)(=O)c2ccc(Cl)cc2)C1` (centres unmarked) [Compound S25, 2-(4-chlorophenyl)sulfonyl-4,5-dimethyl-3,6-dihydrothiazine 1-oxide]: the “pIC50 Experimental” value with cathepsin B is given as 5.38. Besides, the IC50 in the test with cathepsin B (setting [2]) was above 2500 nM.

For the compound `COc1cccc(Cn2c(-c3nonc3N)nc3ccccc32)c1` [Compound S27, 4-[1-[(3-methoxyphenyl)methyl]benzimidazol-2-yl]-1,2,5-oxadiazol-3-amine], the “pIC50 Experimental” value with cathepsin B is 4.34. Further, the IC50 in the test on cathepsin B (setting [2]) was above 2500 nM.

In the case of `CCSc1ccccc1C(=O)n1nnc2ccccc21` [Compound S28, benzotriazol-1-yl-(2-ethylsulfanylphenyl)methanone], the “pIC50 Experimental” value in the test with cathepsin B was 5.15. The IC50 in the test with cathepsin B (setting [2]) was above 2500 nM.

With `N#Cc1c(N2CCCC2)nc(N)c2c(N)nc(N3CCCC3)cc12` [Compound S29, 1,8-diamino-3,6-dipyrrolidin-1-yl-2,7-naphthyridine-4-carbonitrile], in the test with cathepsin B, the “pIC50 Experimental” value is 5.49. Besides, the IC50 in the test with cathepsin B (setting [2]) was above 2500 nM.

Consider `Cn1c(=O)c2c(-c3ccccc3)n(-n3cnnc3)cc2n(C)c1=O` [Compound S30, 1,3-dimethyl-5-phenyl-6-(1,2,4-triazol-4-yl)pyrrolo[3,4-d]pyrimidine-2,4-dione], for which the “pIC50 Experimental” value in the test on cathepsin B is on record as 5.93. Moreover, the IC50 with cathepsin B (setting [2]) was 300 to 2500 nM.

Consider `COc1ccc(S(=O)(=O)n2nc(OC(=O)c3cccs3)cc2N)cc1` [Compound S31, [5-amino-1-(4-methoxyphenyl)sulfonylpyrazol-3-yl] thiophene-2-carboxylate], for which the “pIC50 Experimental” value with cathepsin B is given as 6.16. The IC50 with cathepsin B (setting [2]) is 300 to 2500 nM.

Turning to `Nc1cc(OC(=O)c2cccs2)nn1S(=O)(=O)c1ccc(F)cc1` [Compound S32, [5-amino-1-(4-fluorophenyl)sulfonylpyrazol-3-yl] thiophene-2-carboxylate], the “pIC50 Experimental” value in the test with cathepsin B is 6.36. Further, the IC50 with cathepsin B (setting [2]) is 300 to 2500 nM.

Regarding `CC(=O)OC1(C(F)(F)F)Oc2ccccc2NC1=O` (centres unmarked) [Compound S33, [3-oxo-2-(trifluoromethyl)-4H-1,4-benzoxazin-2-yl] acetate], the “pIC50 Experimental” value with cathepsin B is 6.07. For the same compound, in the test with cathepsin B (setting [2]), the IC50 is 300 to 2500 nM.

`Nc1cc(OC(=O)c2cccs2)nn1S(=O)(=O)c1ccccc1` [Compound S34, [5-amino-1-(benzenesulfonyl)pyrazol-3-yl] thiophene-2-carboxylate]: the “pIC50 Experimental” value with cathepsin B is given as 6.61. Besides, the IC50 in the test with cathepsin B (setting [2]) was below 300 nM.

As for `O=C(CNC(=O)c1ccco1)OCN1C(=O)c2ccccc2C1=O` [Compound S35, (1,3-dioxoisoindol-2-yl)methyl 2-(furan-2-carbonylamino)acetate], the “pIC50 Experimental” value in the test on cathepsin B was 5.07. The IC50 in the test with cathepsin B (setting [2]) is above 2500 nM.

On to `COc1ccc(C(=O)C(OC(=O)CNC(=O)c2ccco2)c2ccccc2)cc1` (centres unmarked) [Compound S36, [2-(4-methoxyphenyl)-2-oxo-1-phenylethyl] 2-(furan-2-carbonylamino)acetate], for which the “pIC50 Experimental” value with cathepsin B is reported as 4.74. The IC50 in the test on cathepsin B (setting [2]) is above 2500 nM.

On to `O=C(CSc1nnc(-c2ccco2)c(-c2ccco2)n1)Nc1ccccc1` [Compound S37, 2-[[5,6-bis(furan-2-yl)-1,2,4-triazin-3-yl]sulfanyl]-N-phenylacetamide], for which, in the test on cathepsin B, the “pIC50 Experimental” value is recorded as 5.65. The IC50 in the test with cathepsin B (setting [2]) is 300 to 2500 nM.

For the compound `CCCNC(=O)C1OC1C(=O)NC(C(=O)N1CCCC1C(=O)OC)C(C)CC` (centres unmarked) [Compound S38, methyl1-[3-methyl-2-[[3-(propylcarbamoyl)oxirane-2-carbonyl]amino]pentanoyl]pyrrolidine-2-carboxylate], the IC50 in the test with cathepsin B (setting [1]) was […]; in the test on cathepsin B (setting [3]), […]; in the test with cathepsin B (setting [2]), […]. Besides, the “pIC50 Experimental” value with cathepsin B is listed as […].

Take `CCOC(=O)[C@@H]1O[C@H]1C(=O)N[C@@H](CC(C)C)C(=O)N1CCN(Cc2ccc(OC)c(OC)c2OC)CC1` [Compound S39, ethyl(2R,3R)-3-[[(2S)-4-methyl-1-oxo-1-[4-[(2,3,4-trimethoxyphenyl)methyl]piperazin-1-yl]pentan-2-yl]carbamoyl]oxirane-2-carboxylate; sulfuric acid]: the “pIC50 Experimental” value with cathepsin B is reported as 6.09. The IC50 in the test with cathepsin B (setting [3]) was 800 nM; in the test with cathepsin B (setting [2]), 300 to 2500 nM.

For `O=c1cc(-c2ccc(Oc3c(O)cc4oc(-c5ccc(O)cc5)cc(=O)c4c3O)cc2)oc2cc(O)cc(O)c12` [HIF, Hinokiflavone], the IC50 with cathepsin B (setting [1]) is 580 nM.

F-F-FMK came in with a relative inhibition at human cathepsin B of 69.67%.

Values taken from article PMC8391575, “Identification of Novel Cathepsin B Inhibitors with Implications in Alzheimer’s Disease: Computational Refining and Biochemical Evaluation” (Cells, 2021).
